Patent publication US20210015749A1, “NANOCOCHLEATE FORMULATION AND METHOD OF PREPARING THE NANOCOCHLEATE FORMULATION” (priority 2019, published 2021)

Tested on: glucocorticoid-treated rats
Experiment: Biochemical tests of serum bone parameters in treatment groups of osteoporotic (prednisolone) rats
Format: in vivo, rat
[1] = serum, * = significant difference with prednisolone group

With Vitamin D the Ph (serum phosphorus) was 7.525 ± 0.4272, the Bone-ALP [1] was 312 ± 24.42 and the Ca [1] was 9.367 ± 0.3786. For the same substance, the OPG [1] was 3.325 ± .9012 and the Osteocalcin [1] was 16.5 ± 2.121.
